Results taken from patent US8293231B2, “Methods and compositions for treating ischemia” (Blue Blood Biotech Corp., priority 2005, dated 2012).

How the values were obtained:
rat cornea = experiment: Rat corneal angiogenesis assay; format: in vivo, Sprague Dawley rats
Method: (§1) The rat corneal assay was performed as described elsewhere. See eg., Kenyon B M., et al A model of angiogenesis in the mouse cornea. Invest Opthalmol Vis Sci. 1996; 37:1625-1632. Uniformly sized pellets of Hydron (polyhydroxyethylmethacrylate [poly HEMA]) (Sigma-Aldrich) containing either TMD23 or basic fibroblast growth factor (bFGF) and sucralfate (Sigma-Aldrich) were implanted into the rat corneal stroma adjacent to the temporal limbus. Briefly, sterile-saline suspensions containing 5-40 μg TMD23 or bFGF plus 10 mg sucralfate were made and speed vacuumed for 5 min; 12% Hydron in ethanol was added as described. The suspension was deposited onto an autoclaved, sterilized, 15-mm×15-mm nylon mesh. […] The eyes of Sprague Dawley rats (250-300 g) were topically anesthetized and a single pellet was inserted into a surgically created pocket in the corneal stroma. Corneas were examined daily with a dissecting microscope for up to 24 days for capillary growth. Maximal vessel length, clock h, and vascular areas of corneas of all rats were measured with a slit-lamp stereomicroscope.
as §1, with “elsewhere.” for “elsewhere. See eg., Kenyon B M., et al A model of angiogenesis in the mouse cornea. Invest Opthalmol Vis Sci. 1996; 37:1625-1632.”, “clock hour,” for “clock h,”

[1] = tested on: ERK1/2, p38 MAPK, Akt, and eNOS phosphorylation in HUVECs; experiment: Assay of ERK1/2, p38 MAPK, Akt and eNOS phosphorylation (Western blotting); format: cell-based, human
Method: HUVECs were cultured to confluence in a 6-cm-diameter dish and incubated in M199 containing 1% FBS for 18 h. Cells were washed and incubated with serum-free M199 for 6 h, and treated with the indicated concentration of TMD23. Cell lysates were separated by SDS-PAGE, and the levels of phospho-ERK1/2 (Tyr 204) and total ERK1/2, phospho-p38 (Thr-180/Tyr-182) and p38, phosphor-Akt (Ser-473) and Akt, and phospho-eNOS (Ser-1173) and eNOS were detected by Western blotting with specific antibodies (Cell Signaling Technology).

HUVECs = experiment: Chemotaxis assay (Transwell); format: cell-based, human
Method: (§2) The chemotactic motility of HUVECs was assayed using Transwell (Costar) with 6.5-mm diameter polycarbonate filters (8-μm pore size). The lower filter surface was coated with 10 μg gelatin (Sigma-Aldrich). Various concentrations of TMD23 in the absence or presence of 10 μg/mL polyclonal rabbit anti-TMD23 antibody or 10 ng/mL vascular endothelial growth factor (VEGF) (R & D Systems, Inc.) in M199 were placed in the lower wells. One hundred mL cell suspension containing 1×10^5 cells was loaded into each of upper well. The chamber was incubated at 37° C. for 4 h. Cells were fixed with methanol and stained with 4′,6′-diamidino-2-phenylindole (DAPI). Chemotaxis was quantified with optical microscopy (Leica) at 100× magnification using MetaMorph imaging software (Universal Imaging Corporation) by counting the cells that migrated to the filter's lower side. Five random fields in each well were counted. Each sample was assayed in triplicate, and assays were repeated three times. To determine the role of extracellular signal-regulated kinase 1/2 (ERK1/2), p38 mitogen-activated protein kinase (MAPK), and phosphatidylinositol 3-kinase (PI3 kinase)-protein kinase B/Akt (Akt) in TMD23-mediated cell migration, assays were performed in the presence of U0126, a MAPK/ERK kinase (MEK) inhibitor, SB 203580, a p38 MAPK inhibitor, and LY 294002, a PI3 kinase inhibitor. Cell viability as determined by trypan blue staining was not altered by treatment. 00126 was purchased from Promega, with SB 203580 and LY 294002 from Calbiochem.
as §2, with “hundred μL” for “hundred mL”, “MAPK/ERK kinase-(MEK)” for “MAPK/ERK kinase (MEK)”, “treatment. U0126” for “treatment. 00126”

[2] = tested on: Matrigel plugs in FVB mice; experiment: Murine angiogenesis assay (Matrigel plug); format: in vivo
Method: To assess angiogenic effects in vivo, growth-factor-reduced liquid Matrigel (0.5 mL) containing heparin (60 U/mL) and various concentrations of TMD23, bFGF or VEGF was subcutaneously injected into FVB mice near the abdominal midline. Matrigel with PBS plus heparin served as the negative control, with bFGF and VEGF plus heparin as the positive control. Four days after injection, mice were sacrificed and Matrigel plugs were surgically removed. For macroscopic analysis of angiogenesis, hemoglobin content in Matrigel was measured using Drabkin reagent 525 (Sigma-Aldrich). For histological analysis, rat anti-mouse CD31 (PECAM-1, platelet endothelial cell adhesion molecule-1) antibody (Pharmingen) was used. The same specimens were used for hematoxylin and eosin (H&E) staining.

## TMD23: Recombinant human thrombomodulin fragment, amino acids Ala242-Ser515 of SEQ ID NO: 2: six EGF-like structures (D2) plus Ser/Thr-rich domain D3
Rat cornea; 90-ng dose
  Day of maximal response: 10 days
Rat cornea; 90-ng dose, day 10
  Maximal response compared with bFGF: slightly greater than the response to 90 ng bFGF
Rat cornea; implants in rat cornea
  Corneal neovascularization: induced dose-dependent and time-dependent corneal neovascularization
Rat cornea; response regressed gradually after day 10
  Day of complete abrogation of angiogenic response: ≤ 24 days
[1]; FIG. 3B
  Time of maximal phosphorylation (ERK, p38, and Akt): about 30 min
  Time of maximal phosphorylation (eNOS): ~120 min
[1]; total proteins remained constant, FIG. 3A
  ERK1/2, p38, Akt, and eNOS phosphorylation in HUVECs: dose-dependently induced
HUVECs; 10 ng/mL TMD23
  Effect on HUVEC migration compared with VEGF (10 ng/mL): comparable with that of VEGF
HUVECs; 10 ng/mL TMD23, 4 h
  Migratory activity increased over the control: 80%
HUVECs; FIG. 2B
  Chemotactic response in HUVECs: markedly induced a dose-dependent chemotactic response
[2]; Matrigel plug assay
  Induction of in vivo angiogenesis compared with TMD2: more effective than TMD2
[2]; TMD23 and heparin
  Histology of Matrigel plugs (H&E, anti-mouse CD31): Capillary-like structures were found
[2]; all TMD23 concentrations, plus heparin
  Vascularization of Matrigel plugs: Intense vascularization
[2]; day 4, plus heparin (30 U), TMD23 10, 100, or 1,000 ng, bFGF 250 ng, VEGF 50 ng
  Appearance of Matrigel plugs, with heparin: bright red
[2]; gels supplemented with both angiogenic factor and heparin
  Magnitude of angiogenic reaction with heparin versus without: considerably greater
[2]; plus heparin, compared with controls
  Hemoglobin content of recovered Matrigel plugs: significantly increased
